In the OligoGym collection:
“And” between values parts separate entries of the source, which are not always exact repeats. Equal values may be shown once. After the bases stand the sugars from the 5' end (letter, count) and the backbone: PS all phosphorothioate, else s phosphorothioate and o phosphodiester by linkage. Methylation of C is not given here. e = 2'-O-(2-methoxyethyl) (MOE); k = constrained ethyl (cEt); d = 2'-deoxy (DNA)

Molecular target: IRF4
Settings: ASO

Row | Sequence | target mRNA inhibition (MM.1R, 1 µM) | target mRNA inhibition (SK-MEL-28, 4 µM) | further results
1 | CCACAGTGAAGTCGGG (sugars k3 d10 k3, PS) | 6% | – | –
2 | CCACGAAGGGCAGTGC (sugars k3 d10 k3, PS) | 0% | – | –
3 | CCACGAGGCCCCGGAG (sugars k3 d10 k3, PS) | 4% | – | –
4 | CCACGCGCGGAGGACC (sugars k3 d10 k3, PS) | – | 19% | –
5 | CCACGGACGGAGGCGG (sugars k3 d10 k3, PS) | -6% | – | –
6 | CCACTGTTAAAGCAGC (sugars k3 d10 k3, PS) | – | 66% | –
7 | CCAGAACTAATGTCCC (sugars k3 d10 k3, PS) | 6% | – | –
8 | CCAGAAGTACGAGCAC (sugars k3 d10 k3, PS) | -3% | – | –
9 | CCAGGATTCGCCATGG (sugars k3 d10 k3, PS) | 13% | – | –
10 | CCATATTGGAAACCAG (sugars k3 d10 k3, PS) | 10% | – | –
11 | CCCAAATGACTTAGTC (sugars k3 d10 k3, PS) | – | 32% | –
12 | CCCAAGTGAGGTCACC (sugars k3 d10 k3, PS) | – | 20% | –
13 | CCCAATACATATCCAT (sugars k3 d10 k3, PS) | – | 74% | –
14 | CCCAATAGTCTAGCTG (sugars k3 d10 k3, PS) | – | 56% | –
15 | CCCACACCAGCCCGGG (sugars k3 d10 k3, PS) | – | -6% | –
16 | CCCACGCGGGAGGCTC (sugars k3 d10 k3, PS) | -23% | – | –
17 | CCCATGAACACCATGC (sugars k3 d10 k3, PS) | – | 32% | –
18 | CCCATTTAATCTGTCT (sugars k3 d10 k3, PS) | – | 33% | –
19 | CCCCAGCTATGCTCTA (sugars k3 d10 k3, PS) | -30% | – | –
20 | CCCCATATACATTGAG (sugars k3 d10 k3, PS) | – | 37% | –
21 | CCCCATTGCCTGTTAA (sugars k3 d10 k3, PS) | – | 20% | –
22 | CCCCTCTCCAGGTGGC (sugars k3 d10 k3, PS) | – | 13% | –
23 | CCCCTCTCCAGGTGGC (sugars k4 d8 k4, PS) | – | -1% | –
24 | CCCTACTGGGTACATG (sugars k3 d10 k3, PS) | – | 37% | –
25 | CCCTTAGGATAATATA (sugars k3 d10 k3, PS) | – | 49% | –

Row | Sequence | target mRNA inhibition (MM.1R, 1 µM) | target mRNA inhibition (SK-MEL-28, 4 µM) | further results
26 | CCCTTCCCGCTCCGAA (sugars k3 d10 k3, PS) | – | 16% | –
27 | CCGAGATATAAATAGC (sugars k3 d10 k3, PS) | 25% | 61% | target mRNA inhibition (MM.1R, 0.0625 µM): 3%; target mRNA inhibition (MM.1R, 0.074 µM): 7%; target mRNA inhibition (MM.1R, 0.222 µM): 9%; target mRNA inhibition (MM.1R, 0.25 µM): 12%; target mRNA inhibition (MM.1R, 0.666 µM): 22%; target mRNA inhibition (MM.1R, 2 µM): 38%; target mRNA inhibition (MM.1R, 4 µM): 52%
28 | CCGCAAAAGAAACGAG (sugars k3 d10 k3, PS) | -7% | – | –
29 | CCGCAGCTCACCGCGC (sugars k3 d10 k3, PS) | – | 36% | –
30 | CCGCCCGCTCTGCTCT (sugars k3 d10 k3, PS) | – | 54% | –
31 | CCGCTCAACCAGTTCC (sugars k3 d10 k3, PS) | -12% | – | –
32 | CCGGAAGAAGGCACCT (sugars k3 d10 k3, PS) | – | 17% | –
33 | CCGGAGTCAGTGCTGG (sugars k3 d10 k3, PS) | – | -7% | –
34 | CCGGGTTCCTCCACCC (sugars k3 d10 k3, PS) | – | 9% | –
35 | CCGTCCCAGTAGATCC (sugars k3 d10 k3, PS) | – | 25% | –
36 | CCGTTCCTTTTTTAGT (sugars k3 d10 k3, PS) | -3% | – | –
37 | CCTACAAAATGCCTCC (sugars k3 d10 k3, PS) | – | 47% | –
38 | CCTACAAGCAGTCATC (sugars k3 d10 k3, PS) | – | 54% | –
39 | CCTAGAGGTGCCTTCT (sugars k3 d10 k3, PS) | – | 41% | –
40 | CCTCAGTTTGTGAAGC (sugars k2 d9 e3 k2, PS) | 33% | – | –
41 | CCTCAGTTTGTGAAGC (sugars kkddddddddddkeke, PS) | 16% | – | –
42 | CCTCAGTTTGTGAAGC (sugars kkdddddddddekeke, PS) | 21% | – | –
43 | CCTCAGTTTGTGAAGC (sugars kkkdddddddddkeke, PS) | 8% | – | –
44 | CCTCAGTTTGTGAAGC (sugars kkkddddddddkekek, PS) | 3% | – | –
45 | CCTCCATTCTAACAGA (sugars k4 d8 k4, PS) | – | -22% | –
46 | CCTGAAGCTTAGTTAT (sugars k3 d10 k3, PS) | – | 35% | –
47 | CCTGGCGGAGCATCAA (sugars k3 d10 k3, PS) | – | 42% | –
48 | CCTGGGACTCAGGTGG (sugars k3 d10 k3, PS) | – | 59% | target mRNA inhibition (MM.1R, 0.074 µM): 6%; target mRNA inhibition (MM.1R, 0.222 µM): -6%; target mRNA inhibition (MM.1R, 0.666 µM): 0%; target mRNA inhibition (MM.1R, 2 µM): 13%; target mRNA inhibition (SK-MEL-28, 0.185 µM): 9%; target mRNA inhibition (SK-MEL-28, 5 µM): 64%; target mRNA inhibition (SK-MEL-28, 15 µM): 91%
49 | CCTGGTCCAGGTTGCT (sugars k3 d10 k3, PS) | – | 26% | –
50 | CCTGTACACTTTGTAC (sugars k3 d10 k3, PS) | -2% | – | –

Row | Sequence | target mRNA inhibition (MM.1R, 1 µM) | target mRNA inhibition (SK-MEL-28, 4 µM) | further results
51 | CCTTAGGAACGAAGAG (sugars k3 d10 k3, PS) | -6% | – | –
52 | CCTTATTAGACTGACA (sugars k3 d10 k3, PS) | – | 48% | –
53 | CCTTTAGTGTCGCCAT (sugars k3 d10 k3, PS) | – | 58% | –
54 | CGAAACACAGTCTGCT (sugars k3 d10 k3, PS) | – | 53% | –
55 | CGACAAGTGGCGCAGA (sugars k3 d10 k3, PS) | 2% | – | –
56 | CGACAGCATAGCATTA (sugars k3 d10 k3, PS) | – | 75% | –
57 | CGACAGCTAAAGAACA (sugars k3 d10 k3, PS) | – | 37% | –
58 | CGAGAACGCACGGACG (sugars k3 d10 k3, PS) | -11% | – | –
59 | CGAGAAGAGAGGCTGA (sugars k3 d10 k3, PS) | – | 7% | –
60 | CGAGATATAAATAGCT (sugars k3 d10 k3, PS) | – | 53% and 58% | –
61 | CGAGGTTGCCGAGATA (sugars k3 d10 k3, PS) | 66% and 60% | – | –
62 | CGCAATCTTCTGCTGA (sugars k3 d10 k3, PS) | – | 64% | –
63 | CGCAATTCTCCTCAAC (sugars k3 d10 k3, PS) | – | 38% | –
64 | CGCACTAAGTGGGCTC (sugars k3 d10 k3, PS) | – | 14% | –
65 | CGCACTCCGGGCACCC (sugars k3 d10 k3, PS) | 11% | – | –
66 | CGCATAGAGCCCGTCG (sugars k3 d10 k3, PS) | – | 53% | –
67 | CGCATAGGTCCTTCAG (sugars k3 d10 k3, PS) | 6% | – | –
68 | CGCCAGCCAGATGTTT (sugars k3 d10 k3, PS) | -15% | – | –
69 | CGCCATGGCTGATCGC (sugars k3 d10 k3, PS) | – | 53% | –
70 | CGCCCAATCACCTTCC (sugars k3 d10 k3, PS) | -19% | – | –
71 | CGCCGGACCCCGGAGC (sugars k3 d10 k3, PS) | – | 9% | –
72 | CGCCGGAGGCCGCCGT (sugars k3 d10 k3, PS) | – | 3% | –
73 | CGCGGACGCACGGAGA (sugars k3 d10 k3, PS) | – | 19% | –
74 | CGCGGAGGACCTCGCC (sugars k3 d10 k3, PS) | -7% | – | –
75 | CGCTCATGCCGAACTC (sugars k3 d10 k3, PS) | – | 11% | –

Row | Sequence | target mRNA inhibition (MM.1R, 1 µM) | target mRNA inhibition (SK-MEL-28, 4 µM) | further results
76 | CGCTGAATTGTCATGA (sugars k3 d10 k3, PS) | -1% | – | –
77 | CGCTGGACAGCCAAAC (sugars k3 d10 k3, PS) | – | 41% | –
78 | CGCTTTCACTAAAGTC (sugars k3 d10 k3, PS) | – | 71% | –
79 | CGGACGAACGCGCAAA (sugars k3 d10 k3, PS) | – | 39% | –
80 | CGGAGGTTCCTTGAGG (sugars k3 d10 k3, PS) | 42% and 52% | – | target mRNA inhibition (H929, 0.04 µM): 5% and 10%; target mRNA inhibition (KMS11, 0.2 µM): 28% and 21%; target mRNA inhibition (MM.1R, 0.0625 µM): 6%; target mRNA inhibition (MM.1R, 0.25 µM): 29%; target mRNA inhibition (MM.1R, 4 µM): 64%
81 | CGGCAGACGGGAGCCC (sugars k3 d10 k3, PS) | – | 12% | –
82 | CGGCTCCTCCTCCTTT (sugars k3 d10 k3, PS) | – | 11% | –
83 | CGTAAACTGAAAGACC (sugars k3 d10 k3, PS) | – | 48% | –
84 | CGTATTTGTCGAGATC (sugars k3 d10 k3, PS) | – | 50% | –
85 | CGTCGCAGGAGCGCGG (sugars k3 d10 k3, PS) | 1% | – | –
86 | CGTCTTCCAGGTGGGA (sugars k3 d10 k3, PS) | – | 16% | –
87 | CGTGAGAATGTTGGCT (sugars k3 d10 k3, PS) | – | 49% | –
88 | CGTGTGCTTGCCAAGC (sugars k3 d10 k3, PS) | 67% and 66% and 56% | – | target mRNA inhibition (MM.1R, 0.0625 µM): -3%; target mRNA inhibition (MM.1R, 0.25 µM): 31%; target mRNA inhibition (MM.1R, 4 µM): 81%
89 | CGTGTGCTTGCCAAGC (sugars kkddddddddddkeke, PS) | 55% and 45% | – | –
90 | CGTTCTCCCACACCAG (sugars k3 d10 k3, PS) | – | 48% | –
91 | CTAAAACTGCGCTCTC (sugars k3 d10 k3, PS) | – | 24% | –
92 | CTAAAGGAGTGCAGGA (sugars k3 d10 k3, PS) | – | 6% | –
93 | CTAAATCACCCTGGTC (sugars k3 d10 k3, PS) | – | 47% | –
94 | CTAATGGTGCTCCTAA (sugars k3 d10 k3, PS) | 4% | – | –
95 | CTAATTCCATAGAGCC (sugars k3 d10 k3, PS) | 47% | 80% | target mRNA inhibition (MM.1R, 0.0625 µM): 2%; target mRNA inhibition (MM.1R, 0.074 µM): -13%; target mRNA inhibition (MM.1R, 0.222 µM): -6%; target mRNA inhibition (MM.1R, 0.25 µM): 8%; target mRNA inhibition (MM.1R, 0.666 µM): 4%; target mRNA inhibition (MM.1R, 2 µM): 20%; target mRNA inhibition (MM.1R, 4 µM): 88%
96 | CTACACAGGCTAATCA (sugars k3 d10 k3, PS) | 4% | – | –
97 | CTACACTTCCAAGCAA (sugars k3 d10 k3, PS) | – | -5% | –
98 | CTACTTCAGCTACATT (sugars k3 d10 k3, PS) | – | 47% | –
